Values quoted from earlier work in patent US20260069593A1, “METHODS FOR TREATING CANCER” (AMGEN INC., priority 2022, published 2026).

Tested on: extracellular signal-regulated kinase (ERK)
Conditions: preclinical studies

For `C=CC(=O)N1CCN(c2nc(=O)n(-c3c(C)ccnc3C(C)C)c3nc(-c4c(O)cccc4F)c(F)cc23)[C@@H](C)C1` (atropisomer, axis not shown; (M)) [sotorasib, 6-fluoro-7-(2-fluoro-6-hydroxyphenyl)-(1M)-1-[4-methyl-2-(propan-2-yl)pyridin-3-yl]-4-[(2S)-2-methyl-4-(prop-2-enoyl)piperazin-1-yl]pyrido[2,3-d]pyrimidin-2(1H)-one], the “phosphorylation of extracellular signal-regulated kinase (ERK)” value is given as “inhibited nearly all detectable phosphorylation of extracellular signal-regulated kinase (ERK)”.
